Data from patent US7605175B2, “Inhibitors of cyclin-dependent kinases, compositions and uses related thereto” (GPC Biotech AG, priority 2001, dated 2009).
Read-outs that look alike come from different tables or passages of the source.

Legend:
[1] = system: NCI panel of 60 cell lines; experiment: NCI panel of human tumor cell lines (SRB), Mean-Graph Mid-point; type: cell-based
Source text: The evaluation of compounds at the National Cancer Institute in their panel of 60 cell lines provides a wealth of information regarding efficacy in a wide range of tumor types and genetic backgrounds. Included within this panel are cell lines derived from leukemia, melanoma and cancers of the lung, colon, brain, ovary, breast, prostate and kidney. Use of this panel provides a measure of the efficacy of compounds in cells with alterations in many genes that are associated with neoplastic transformation including p53 and Her2/Neu as well as those involved in metabolism and those which confer multi-drug resistance. The data generated in these cell lines with the protocol described below can be used to evaluate the activity of compounds.
Cells were grown in RPMI-1640 10% FCS and plated in 96 well micro-titer plates at densities ranging from 5,000 to 40,000 cells/well. The plates were incubated for 24 hours at 37° C., 5% CO2 for 24 hours. Media containing twice the desired final concentration of the compound (5 doses spanning 4 logs) was prepared and 100 μl was added to each well containing 100 μl media plus cells to yield the desired final concentration. The plates were then incubated for an additional 48 hours.
The effect of the compound on cellular viability was determined with the Sulforhodamine B (SRB) assay, which measures total protein. Cells were fixed with cold TCA to a final concentration of 10% and incubated at 4° C. for 60 minutes. The supernatant was discarded and the plates were washed five times with water and air-dried. SRB solution at […] in 1% acetic acid was added to each well and the plates were incubated for 10 minutes at room temperature. The plates were washed five times with 1% acetic acid and air-dried. The bound stain was solubilized with 10 mM trizma base and the absorbance was read on a plate reader at […].

arrested HCT-116 cells = experiment: Arrested cell assay, arrested HCT-116 tumor cells; type: cell-based; settings: Homo sapiens
arrested IMR90 cells = experiment: Arrested cell assay, arrested IMR90 normal cells; type: cell-based; settings: Homo sapiens, IMR-90
Outline: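 IMR90 cells arrested by 3 days' serum-free culture after overnight plating at 20,000 cells/well (cycling cells kept in 10% FCS), then exposed to compound for 72 h at 37°C; 6 doses, 50 nM to 25 μM. Viability read by Calcein AM esterase fluorescence after 75 min at 37°C.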

HCT-116 cells = experiment: Cell cycle analysis with propidium iodide (PI FACS); type: cell-based, human; settings: HCT-116, 24, 48 and 72 hours
Procedure: The percentage of cells in the G1, S and G2/M phases of the cell cycle was determined by staining DNA with propidium iodide and quantifying the number of cells with a 2N or 4N DNA complement by flow cytometry. Alterations in the distribution of cells across the cell cycle in response to exposure to the Cdk inhibitors was evaluated in this marmer.
3 sets of HCT-116 cells (100,000 cells/set) were cultured in the presence of a test compound in T-25 flasks according to Table 1 below. Analysis was performed at 24, 48 and 72 hours. Adherent cells were collected by trypsinization, combined with floating cells in Falcon 12×75 flow cytometric tubes, and harvested by centrifugation. The media was decanted from the cell pellet, 100 μl of PI stain was added and the cells were incubated at 37° C. for 20-25 minutes. The cell count was preferably no greater than 2×10^6-4×10^6/ml. An equal volume (100 μl) of PI salt was then added to the cells, which were then incubated at 4° C. for 1-2 hours. The stained cells were analyzed on a Becton Dickinson FACScan flow cytometer. Samples were protected from light.

[2] = NCI assay, read-out: Mean-Graph Mid-point
[3] = read-out: IC50 for arrested HCT-116 cells
[4] = read-out: IC50 for arrested IMR90 cells

Structure (SMILES) | IC50 [1, 2] [nM] | IC50 (arrested HCT-116 cells; [3]) [nM] | IC50 (arrested IMR90 cells; [4]) [nM] | Effect on cell cycle distribution (PI staining) (HCT-116 cells) | IC50 ([1]; read-out: NCI panel MG-MID (Mean-Graph Mid-point, average IC50 over the whole cell panel)) [nM] | IC50 (arrested HCT-116 cells; serum-starved arrested cells, 72 hours, read-out: Arrested cell assay HCT IC50) [nM] | IC50 (arrested IMR90 cells; serum-starved arrested cells, 72 hours, read-out: Arrested cell assay IMR90 IC50) [nM]
CC(C)N1CCN(C(=O)COc2ccc(-c3[nH]nc4c3C(=O)c3c(NC(=O)NN5CCOCC5)cccc3-4)cc2)CC1.Cl [Compound A37] | < 50 | < 50 | > 10000 | cells are terminally arrested in G1 and G2, with evidence of apoptosis and endo-reduplication | – | – | –
COCCN1CCN(Cc2ccc(-c3[nH]nc4c3C(=O)c3c(NC(=O)NN5CCOCC5)cccc3-4)cc2)CC1.Cl.Cl [Compound B16, N-[3-(4-{[4-(2-methoxyethyl)piperazinyl]methyl}phenyl)-4-oxoindeno[2,3-d]pyrazol-5-yl](morpholin-4-ylamino)carboxamide dihydrochloride] | < 50 | < 50 | > 10000 | Analogous results | – | – | –
CC(C)c1nn(-c2c(Cl)cccc2Cl)c2nc(Cc3ccc(O)c(CN4CCN(C(C)C)CC4)c3)[nH]c(=O)c12 [Compound C] | – | – | – | – | < 100 | < 10 | > 1000
